The values that follow come from US11548845B2, “Methods of isolating phenols from phenol-containing media” (WISCONSIN ALUMNI RESEARCH FOUNDATION, priority 2019, dated 2023).

Values joined by “and” are separate entries in the source; they are usually repeats but may differ in a detail not shown here. Equal values may be shown once. Marks after values point to notes of the source that are not given here.

Data set [1] in a line: Interaction of 1% w/v lecithin with individual polyphenols, depletion from solution by HPLC. As to conditions: pH 2.43, anthocyanins depleted from single-strength cranberry juice, others from aqueous solution. The protocol:
Aqueous polyphenol solutions near saturation were prepared by dissolving the individual polyphenols in 50 mL ultrapure water. Depends on their solubility in water, the polyphenols solutions were made in different concentrations. […] The pH of the solution was then adjusted to ˜2.43 using 6 M HCl in order to approximate the pH of juice. The adjusted solution was centrifuged at 3220×g for 20 min to remove any undissolved solids. Next, 1% w/v lecithin was added to 10 mL of the supernatant containing the polyphenols or the phenolic acids. The mixture was vortexed for 1 min and then centrifuged at 3220×g for 20 min to pellet any precipitate. The supernatant was transferred to a 2 mL microcentrifuge tube and was centrifuged for another 20 min at 21130×g before HPLC analysis. The depletion of individual polyphenol content expressed as a percent was determined according to the following equation: Polyphenol and phenolic acid content remaining in the supernatant were quantitated by reverse phase HPLC using a Dionex Ultimate 3000 HPLC equipped with an LPG-3400 quaternary pump, a WPS-3000 analytical autosampler, a DAD-3000 diode array detector, and an FLD-3100 fluorescence detector. […] Separation was with formic acid:water (5:95, v/v) (A) and methanol (B). The flow rate was set to 1 mL/min. The gradient was initially 5% B for 1 min, then increased to 35% B over 39 min, from 35% to 95% B over the next 10 min, and held constant at 95% B for 5 min, then decreased to 5% B over 2 min, and re-equilibrated at 5% B for the remaining 8 min. The column oven was set to 30° C. The absorbance was monitored at 254, 280, 370 and 520 nm. […] The gallic acid peaks in the 280 nm chromatogram was quantitated on the basis of authentic external standards. […] The flow rate was set to 0.5 mL/min. The gradient began at 15% B for 2 min, increased to 90% B over 6 min, then decreased to 15% B over 1 min and re-equilibrated at 15% B for the remaining 1 min. The column oven was set to 25° C. We collected absorbance data at 254, 280, 370 and 520 nm. All the peaks were identified in comparison to authentic external standards.

A short description of data set [2]: Depletion of monomeric anthocyanins in diluted cranberry juice by surfactants, lecithins or phospholipids (pH differential method). The protocol: Classic Mash Cranberry Juice Concentrate with essence returned was received frozen from the supplier (Ocean Spray Cranberries Inc., Lakeville-Middleboro, Mass., U.S.A.). The concentrate came at 50.0° Brix from manufacturer. It was immediately thawed, aliquoted and stored at −20° C. until use. Prior to experiment use, the concentrate was thawed, brought to room temperature, and diluted to 7.5° Brix according to the manufacture specification.
Individual surfactants/phospholipids were added to 10 mL juice samples at a final concentration of 0.01 M. Varying amounts of lecithin were added to 10 mL juice samples at 0.05, 0.1, 0.5, 1, 2, 3, 4, or 5% w/v. Lecithin with different HLB values were added to 10 mL juice samples at 1, 2, 3, 4, or 5% w/v. All mixtures were then vortexed for 3 min and then centrifuged at 3220×g for 20 min. The centrifugation step was repeated with the supernatants. All procedures were carried out at ambient temperatures unless otherwise specified.
Monomeric anthocyanin (MA) content was determined by the AOAC pH differential method. Samples were placed in 96-well plates (Thermo Scientific) for spectral acquisition using a SpectraMax Plus Microplate Reader (Molecular Devices, Sunnyvale, Calif., U.S.A.). We used the SoftMax Pro 5.4.4 to scale for pathlength (Molecular Devices, Sunnyvale, Calif., U.S.A.). Juice samples were diluted such that the absorbance at 520 nm was within the linear range of the instrument. Triplicate samples were analyzed, and the average values are reported.
The depletion of MA expressed as a percent was determined according to the following equation: […]

For data set [3] the following is noted: cited from earlier work; for pka: phospholipid components of lecithin.
For data set [4] the following is noted: surfactants of Table 2; cited from earlier work.
The conditions of data set [5]: values from literature; cited from earlier work.
Setting [6] is: 0.01M phospholipid in cranberry juice.

With `O=C(O)c1cc(O)c(O)c(O)c1` [gallic acid], the Depletion % result in data set [1] was “did not induce precipitation of lecithin”.

As to Phosphatidylethanolamine (soy) [PE], the “Depletion % of monomeric anthocyanins” value in data set [2] (setting [6]) is 10.4±2.5% and 10.4 ± 2.5^b %. Also, in data set [3], the “pKa of the amino group” value is recorded as “about 9.5” and the pka is recorded as 1.7.

With `CCCCCCCC/C=C\CCCCCCCC(=O)OCC(CO)OC(=O)CCCCCCC/C=C\CCCCCCCC` (stereo not shown) [glycerol dioleate], the HLB value in data set [4] was 1.9.

For “sorbitan tristearate [sorbitan tristearate (Span 65)]”, the “Depletion % of monomeric anthocyanins” value was 2.85% in data set [2] (0.01M surfactants in diluted cranberry juice) and “no significant changes” in data set [2] (0.01M surfactants in diluted cranberry juice, listed as sorbitan tristearate).

In the case of sorbitan monostearate, the HLB value in data set [4] is 4.7.

For the compound `CCCCCCCCCCCC(=O)OCC(O)CO` (stereo not shown) [glycerol monolaurate], in data set [4], the HLB value is listed as 5.2.

In the case of `CCCCCCCC/C=C\CCCCCCCC(=O)O` [oleic acid], the HLB value in data set [4] is given as 1.

As to `Oc1ccc(C=Cc2cc(O)cc(O)c2)cc1` [resveratrol], the “Log P” value in data set [5] is given as 2.57^†.

As for triglycerol monostearate, the HLB value in data set [4] is on record as 7.

As to `OC[C@H]1O[C@@H](Oc2cc3c(O)cc(O)cc3[o+]c2-c2ccc(O)c(O)c2)[C@H](O)[C@@H](O)[C@H]1O` [cyanidin-3-O-galactoside], the Depletion % in data set [1] is 49.1±3.5% and 49.1%.

On to Phosphatidylcholine (soy) [PC], for which the “Depletion % of monomeric anthocyanins” value in data set [2] (setting [6]) is 6.69±3.57% and 6.69 ± 3.6^b %. The pka in data set [3] is recorded as 1.0.

On to peonidin-3-O-galactoside, for which the values for the Depletion % in data set [1] and in data set [1] (listed as Peonidin-3-O-galactoside) were 42.2% and 42.2±4.1%, respectively.

In the case of `CCCCCCCCCCCCOS(=O)(=O)[O-].[Na+]` [sodium dodecyl sulfate], the HLB value in data set [4] is 40.

Consider L-a-phosphatidylinositol (soy) [PI], for which the “Depletion % of monomeric anthocyanins” value in data set [2] (setting [6]) is 41.4±8.5% and 41.4 ± 8.5^a %; in data set [2] (0.01M phospholipid in cranberry juice, listed as Phosphatidylinositol (PI)), 41.4±8.5%. In addition, the pka in data set [3] is recorded as 2.5.

As for `Oc1cc(O)c2cc(O[C@@H]3OC[C@H](O)[C@H](O)[C@H]3O)c(-c3ccc(O)c(O)c3)[o+]c2c1` [cyanidin-3-O-arabinoside], the Depletion % in data set [1] was determined as 16.0%; in data set [1] (listed as cyanidin-3-O-arabinose), 16.0±6.5%.

Turning to peonidin-3-O-arabinoside, the results for the Depletion % in data set [1] and in data set [1] (listed as peonidin-3-O-arabinose) were 10.1% and 10.1±6.3%, respectively.

Take hexaglycerol dioleate: in data set [4], the HLB value was 9.

Consider `COc1cc(-c2[o+]c3cc(O)cc(O)c3cc2O[C@@H]2O[C@H](CO)[C@@H](O)[C@H](O)[C@H]2O)ccc1O` [peonidin-3-O-glucoside], for which the Depletion % in data set [1] was 43.0±4.0% and 43.0%.

With `Oc1cc(O)c2c(c1)O[C@H](c1ccc(O)c(O)c1)[C@@H](O)C2` [(+)-catechin], the Depletion % in data set [1] worked out at 18.4%; in data set [1] (listed as (+)-Catechin) it was 18.4±0.5%. The “Log P” value in data set [5] is 0.51^†.

Take `CCCCCCCCCCCCCCCCCC(=O)OCC(O)CO` (racemic) [glycerol monostearate]: in data set [4], the HLB value is given as 3.8.

As for `CCCCCCCC/C=C\CCCCCCCC(=O)[O-].[Na+]` [sodium oleate], the HLB value in data set [4] is 18.

`CCCCCCCC/C=C\CCCCCCCC(=O)OCC(O)CO` (racemic) [glycerol monooleate]: the HLB value in data set [4] is listed as 3.4.

In the case of sodium stearoyl lactylate, the HLB value in data set [4] is 5.1.

On to `O=c1c(-c2ccc(O)cc2)coc2cc(O)cc(O)c12` [genistein], for which the Depletion % is 61.0% in data set [1] and 61.0±3.8% in data set [1] (listed as Genistein).

Regarding `Oc1cc(O)c2cc(O[C@H]3OC[C@H](O)[C@H](O)[C@H]3O)c(-c3cc(O)c(O)c(O)c3)[o+]c2c1` [delphinidin-3-O-arabinoside], the Depletion % was 11.1% in data set [1] and 11.1±4.9% in data set [1] (listed as Delphinidin-3-O-arabinose).

Take `OC[C@H]1O[C@@H](Oc2cc3c(O)cc(O)cc3[o+]c2-c2ccc(O)c(O)c2)[C@H](O)[C@@H](O)[C@@H]1O` [cyanidin-3-O-glucoside]: the Depletion % stood at 45.0% in data set [1] and 45.0±3.5% in data set [1] (listed as Cyanidin-3-O-glucoside). For the same compound, in data set [5], the “Log P” value was 0.39^†.

For `O=c1c(O)c(-c2ccc(O)c(O)c2)oc2cc(O)cc(O)c12` [quercetin], the Depletion % came out at 41.3% in data set [1] and 41.3±1.8% in data set [1] (listed as Quercetin). The log partition coefficient (Log P) in data set [5] is on record as 1.82 ± 0.32.

Turning to `O=c1c(O[C@@H]2O[C@H](CO)[C@H](O)[C@H](O)[C@H]2O)c(-c2ccc(O)c(O)c2)oc2cc(O)cc(O)c12` [quercetin-3-O-galactoside], the Depletion % stood at 35.4% in data set [1] and 35.4±1.0% in data set [1] (listed as Quercetin-3-O-galactoside).

A word on the Log P: it is the decadic logarithm of the partition coefficient of the neutral form, usually between octanol and water.
